Assay results as given in US4725687A (priority 1986, dated 1988).
Where two headings read alike, the source gives them in different places.

Legend:
L1210 cells [1] = test: Mediated transport (influx, efflux) in L1210 cells; assay type: cell-based; conditions: n = 3-4, SE; for Km: influx
Text: (§1) (a) Methods are described by Sirotnak et al, "Molecular Actions and
(§2) Targets for Cancer Chemotherapy Agents", Sartorelli, A.C. Ed., Academic
(§3) Press., New York, pps. 349-383 (1981); Sirotnak et al, Biochem.
(§4) Pharmacol., Vol. 29, p. 3293 (1980); and Sirotnak et al, Cancer Res., Vol

P388/0 = test: Survival of P388/0 bearing mice, in vivo; set-up: species or system murine; conditions: for survival time: P388/0, ip, control 10.8 days; for % T/C: P388/0, survival time, ip
Text: (§5) Comparison of the Response of Murine P388/0
(§6) ^a Implant: ip, 10^6 cells; method described by Geran et al,
(§7) Cancer Chemother. Rep. Part 3, Vol. 3 (2) (1972).

L1210 cells [2] = test: Rate of net polyglutamate formation in L1210 cells; assay type: cell-based; conditions: for order of initial rates of polyglutamate accumulation: comparable rates of drug entry; for Rate of net polyglutamate formation: conditions of comparable rates of drug entry
P388/MTX = test: Survival of P388/MTX (MTX-resistant P388) bearing mice, in vivo; set-up: species or system murine; conditions: ip; for survival time: control 17.2 days; for % T/C: survival time
Text: as §5, §6, §7

L1210 cells [3] = test: L1210 cell growth inhibition in culture; assay type: cell-based; conditions: for IC50: Mus musculus; for potency in the L1210 cell growth inhibition test relative to 5-deazamethotrexate: compared with 5-deazamethotrexate; for potency in the L1210 cell growth inhibition test relative to MTX: compared with MTX
Text: as §1, §2, §3, §4

[4] = test system: EO771 mammary adenocarcinoma; test: Antitumor effects against the EO771 mammary adenocarcinoma in mice; assay type: in vivo; conditions: once per day for five days; for T/C (tumor volume treated/control) / tumor free total / AWC (average weight change): day 7; for toxic deaths total: day 7, 14 or 21; for ave. tumor vol.: day 7, ± SE, control 225 ± 60; for tumor free total: control 0/14
Text: 5-Methyl-5-Deazamethotrexate (20) Against the EO771
Mammary Adenocarcinoma. Average of Two Separate
Experiments (5 Mice/Group) ± SE of the Mean.
^1 given once per day for five days starting one day after tumor
^2 average weight change on day 7 (one day after cessation of therapy
^3 assessed on day 7, 14 or 21
^4 assessed on day 7 (4/3 πr^3) T/C = treated/control
^5 assessed on day 7 (one day after cessation of therapy)

[5] = read-out: Cell Growth inhibn IC50 (n = 4) ± SE, L1210 cells, n = 4, ± SE
[6] = qd 1-5, optimal dose 0.25 mg/kg

`CN(Cc1cnc2nc(N)nc(N)c2c1)c1ccc(C(=O)N[C@@H](CCC(=O)O)C(=O)O)cc1` [Compound 5-dMTX, 5-deazamethotrexate, reference compound] was tested, and the “Mediated Transport efflux k + SE” value (L1210 cells [1]) was 0.28 ± 0.04 min⁻¹, the Km (L1210 cells [1]) was 4 ± 0.5 µM and the survival time (P388/0; qd 1-5, optimal dose 4 mg/kg) was 18.0 days. For the same compound, the “% T/C” value (P388/0; qd 1-5, optimal dose 4 mg/kg) was 166%, the “order of initial rates of polyglutamate accumulation” value (shortened to “order”) (L1210 cells [2]) was “AMT>5-Me-5-dAMT>5-dAMT>MTX>5-dMTX>5-Me5-dMTX” and the “Rate of net polyglutamate formation” value (L1210 cells [2]) was 48.8 pM/min/g dry wt. The survival time (P388/MTX; qd 1-5, optimal dose 4 mg/kg) was 20.3 days, the “% T/C” value (P388/MTX; qd 1-5, optimal dose 4 mg/kg) was 118% and the IC50 (L1210 cells [3]; [5]) was 2850 ± 300 pM.
With `CCOC(=O)CC[C@H](NC(=O)c1ccc(NCc2cnc3nc(N)nc(N)c3c2)cc1)C(=O)OCC` [Compound 9, N-[4-[[(2,4-Diaminopyrido[2,3-d]pyrimidin-6-yl)methyl]-amino]benzoyl]-L-glutamic Acid Diethyl Ester] the survival time (P388/0; qd 1-5, optimal dose 1 mg/kg) was 16.2 days, the “% T/C” value (P388/0; qd 1-5, optimal dose 1 mg/kg) was 151% and the survival time (P388/MTX; qd 1-5, optimal dose 1 mg/kg) was 20.8 days. The “% T/C” value (P388/MTX; qd 1-5, optimal dose 1 mg/kg) was 120%.
`Nc1nc(N)c2cc(CNc3ccc(C(=O)N[C@@H](CCC(=O)O)C(=O)O)cc3)cnc2n1` [Compound 11] was tested, and the “Mediated Transport efflux k + SE” value (L1210 cells [1]) was 0.30 ± 0.04 min⁻¹, the Km (L1210 cells [1]) was 1.1 ± 0.2 µM and the survival time (P388/0; qd 1-5, optimal dose 0.5 mg/kg) was 15.8 days. For the same compound, the “% T/C” value (P388/0; qd 1-5, optimal dose 0.5 mg/kg) was 146%, the “order” value (L1210 cells [2]) was “AMT>5-Me-5-dAMT>5-dAMT>MTX>5-dMTX>5-Me5-dMTX” and the “Rate of net polyglutamate formation” value (L1210 cells [2]) was 84.2 pM/min/g dry wt. The survival time (P388/MTX; qd 1-5, optimal dose 2 mg/kg) was 21.8 days, the “% T/C” value (P388/MTX; qd 1-5, optimal dose 2 mg/kg) was 126% and the IC50 (L1210 cells [3]; [5]) was 630 ± 70 pM.
In the case of `Cc1c(CNc2ccc(C(=O)N[C@@H](CCC(=O)O)C(=O)O)cc2)cnc2nc(N)nc(N)c12` [Compound 12], the “Mediated Transport efflux k + SE” value (L1210 cells [1]) is reported as 0.26 ± 0.05 min⁻¹, the Km (L1210 cells [1]) is reported as 1.2 ± 0.2 µM and the survival time (P388/0; qd 1-5, optimal dose 0.5 mg/kg) is reported as 16.4 days. The “% T/C” value (P388/0; qd 1-5, optimal dose 0.5 mg/kg) was 151%, the “order” value (L1210 cells [2]) was “AMT>5-Me-5-dAMT>5-dAMT>MTX>5-dMTX>5-Me5-dMTX” and the “Rate of net polyglutamate formation” value (L1210 cells [2]) was 98.3 pM/min/g dry wt. The survival time (P388/MTX; qd 1-5, optimal dose 0.5 mg/kg) was 20.8 days, the “% T/C” value (P388/MTX; qd 1-5, optimal dose 0.5 mg/kg) was 120% and the IC50 (L1210 cells [3]; L1210, read-out: Cell Growth inhibn IC50 (n = 4) ± SE) was 1290 ± 200 pM.
`Cc1c(CN(C)c2ccc(C(=O)N[C@@H](CCC(=O)O)C(=O)O)cc2)cnc2nc(N)nc(N)c12` [Compound 20, N-[4-[[2,4-Diamino-5-methylpyrido[2,3-d]pyrimidin-6-yl)methyl]methylamino]benzoyl-L-glutamic Acid] was tested, and the “Mediated Transport efflux k + SE” value (L1210 cells [1]) was 0.31 ± 0.05 min⁻¹, the Km (L1210 cells [1]) was 3.2 ± 0.4 µM and the survival time (P388/0; qd 1-5, optimal dose 1 mg/kg) was 19.7 days. For the same compound, the “% T/C” value (P388/0; qd 1-5, optimal dose 1 mg/kg) was 182%, the “order” value (L1210 cells [2]) was “AMT>5-Me-5-dAMT>5-dAMT>MTX>5-dMTX>5-Me5-dMTX” and the “Rate of net polyglutamate formation” value (L1210 cells [2]) was 42.9 pM/min/g dry wt. The survival time (P388/MTX; [6]) was 20.8 days, the “% T/C” value (P388/MTX; [6]) was 120% and the IC50 (L1210 cells [3]; [5]) was 240 ± 30 pM. The “potency in the L1210 cell growth inhibition test relative to 5-deazamethotrexate” value (L1210 cells [3]) was “more than 10 times”, the “potency in the L1210 cell growth inhibition test relative to MTX” value (L1210 cells [3]) was 10 times and the “T/C (tumor volume treated/control)” value ([4]; 0.375 mg/kg) was 0.25. For the same compound, the toxic deaths total ([4]; 0.375 mg/kg) was 0/10, the ave. tumor vol. ([4]; 0.375 mg/kg) was 50 ± 16 mm^3 and the tumor free total ([4]; 0.375 mg/kg) was 0/10. The “T/C (tumor volume treated/control)” value ([4]; 0.75 mg/kg) was 0.13, the toxic deaths total ([4]; 0.75 mg/kg) was 0/10 and the ave. tumor vol. ([4]; 0.75 mg/kg) was 35 ± 10 mm^3. For the same compound, the tumor free total ([4]; 0.75 mg/kg) was 1/10, the “T/C (tumor volume treated/control)” value ([4]; 1.5 mg/kg) was 0.03 and the toxic deaths total ([4]; 1.5 mg/kg) was 0/10. The ave. tumor vol. ([4]; 1.5 mg/kg) was 4 ± 2 mm^3, the tumor free total ([4]; 1.5 mg/kg) was 6/10 and the “T/C (tumor volume treated/control)” value ([4]; 3.0 mg/kg) was 0.02. For the same compound, the toxic deaths total ([4]; 3.0 mg/kg) was 5/6, the ave. tumor vol. ([4]; 3.0 mg/kg) was 3 ± 1 mm^3 and the tumor free total ([4]; 3.0 mg/kg) was “toxic”.
In the case of `CCN(Cc1cnc2nc(N)nc(N)c2c1C)c1ccc(C(=O)N[C@@H](CCC(=O)O)C(=O)O)cc1` [Compound 21], the “Mediated Transport efflux k + SE” value (L1210 cells [1]) is reported as 0.29 ± 0.04 min⁻¹, the Km (L1210 cells [1]) is reported as 3.3 ± 0.5 µM and the IC50 (L1210 cells [3]; [5]) is reported as 260 ± 20 pM. For the same compound, the “potency in the L1210 cell growth inhibition test relative to 5-deazamethotrexate” value (L1210 cells [3]) was “more than 10 times” and the “potency in the L1210 cell growth inhibition test relative to MTX” value (L1210 cells [3]) was 10 times.
For `CN(Cc1cnc2nc(N)nc(N)c2n1)c1ccc(C(=O)N[C@@H](CCC(=O)O)C(=O)O)cc1` [MTX, Methotrexate, reference compound], the “Mediated Transport efflux k + SE” value (L1210 cells [1]) was 0.33 ± 0.06 min⁻¹, the Km (L1210 cells [1]) was 3.3 ± 0.7 µM and the survival time (P388/0; qd 1-5, optimal dose 4 mg/kg) was 19.7 days. The “% T/C” value (P388/0; qd 1-5, optimal dose 4 mg/kg) was 182%, the “order” value (L1210 cells [2]) was “AMT>5-Me-5-dAMT>5-dAMT>MTX>5-dMTX>5-Me5-dMTX” and the survival time (P388/MTX; qd 1-5, optimal dose 3.5 mg/kg) was 20.3 days. For the same compound, the “% T/C” value (P388/MTX; qd 1-5, optimal dose 3.5 mg/kg) was 118%, the “AWC (average weight change)” value ([4]; 1.5 mg/kg) was “+0.9 g” and the “T/C (tumor volume treated/control)” value ([4]; 1.5 mg/kg) was 0.60. The toxic deaths total ([4]; 1.5 mg/kg) was 0/10, the ave. tumor vol. ([4]; 1.5 mg/kg) was 102 ± 32 mm^3 and the tumor free total ([4]; 1.5 mg/kg) was 1/10. For the same compound, the “AWC (average weight change)” value ([4]; 3.0 mg/kg) was -0.2 g, the “T/C (tumor volume treated/control)” value ([4]; 3.0 mg/kg) was 0.61 and the toxic deaths total ([4]; 3.0 mg/kg) was 0/10. For the same compound, the ave. tumor vol. ([4]; 3.0 mg/kg) was 108 ± 24 mm^3, the tumor free total ([4]; 3.0 mg/kg) was 1/10 and the “AWC (average weight change)” value ([4]; 6.0 mg/kg) was -2.1 g. For the same compound, the “T/C (tumor volume treated/control)” value ([4]; 6.0 mg/kg) was 0.12, the toxic deaths total ([4]; 6.0 mg/kg) was 4/10 and the ave. tumor vol. ([4]; 6.0 mg/kg) was 22 ± 5 mm^3. For the same compound, the tumor free total ([4]; 6.0 mg/kg) was “toxic”.
